Measurements from patent EP3381898A1, “SYMMETRICAL TRIS-ARYL-AMIDE DERIVATIVES AND THEIR USE AS ANTI-HEPARANASE” (priority 2017, dated 2018).
Counter-ions that a name gives are not always drawn. Like-named read-outs stand apart in the source and are kept apart here.

Experiments:
heparanase = target: T1, heparanase (Homo sapiens, UniProt Q9Y251); assay: AGA*IA assay: heparanase-catalyzed fondaparinux cleavage, colorimetric (WST-1); format: biochemical
T1 sequence (Q9Y251 158-543 limits assumed): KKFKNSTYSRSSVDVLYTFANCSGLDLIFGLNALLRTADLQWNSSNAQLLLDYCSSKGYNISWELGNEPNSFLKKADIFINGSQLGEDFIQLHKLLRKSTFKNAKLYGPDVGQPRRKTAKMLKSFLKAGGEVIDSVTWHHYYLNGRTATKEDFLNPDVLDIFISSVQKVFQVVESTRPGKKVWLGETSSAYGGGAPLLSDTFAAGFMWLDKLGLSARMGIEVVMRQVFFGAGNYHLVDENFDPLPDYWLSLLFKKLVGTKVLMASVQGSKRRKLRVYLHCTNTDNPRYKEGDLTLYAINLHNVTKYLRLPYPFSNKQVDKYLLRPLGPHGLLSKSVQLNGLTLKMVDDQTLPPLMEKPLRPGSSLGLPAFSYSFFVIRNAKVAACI
T1 sequence (Q9Y251 36-109 limits assumed): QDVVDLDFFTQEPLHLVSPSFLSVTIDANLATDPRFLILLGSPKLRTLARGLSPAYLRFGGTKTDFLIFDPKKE
Method: All compounds were tested in a simple, accurate and robust microplate assay based on the cleavage of the synthetic heparin fragment, the pentasaccharide Fondaparinux (AGA*IA). This assay was originally developed by Hammond and coworkers (Hammond E, Li CP, Ferro V. Development of a colorimetric assay for heparanase activity suitable for kinetic analysis and inhibitor screening. Anal. Biochem. 396(1), 112-116 (2010)), where Fondaparinux corresponds to the methyl glycoside of the antithrombin III (ATIII)-activating pentasaccharide sequence of heparin. Fondaparinux is cleaved by heparanase to generate a reducing disaccharide, which can be quantitatively measured via a colorimetric or a fluorescence assay, the last by the fluorescent sensor polymer-H [Schiemann S, Lühn S, Alban S. Development of both colorimetric and fluorescence heparinase activity assays using fondaparinux as substrate. Anal. Biochem. 427(1), 82-89 (2012)].
The assay measures the appearance of the disaccharide product of heparanase-catalyzed fondaparinux cleavage colorimetrically using the tetrazolium salt WST-1. Assay was essentially performed as described with minor modifications. Briefly, NUNC ELISA 96-well plates were pre-treated with a solution of 4% BSA (bovin serum albumin) in phosphate-buffered saline containing 0.05% Tween 20 (PBST), for 2 h at 37°C, then washed three times with PBST, dried by tapping on paper towel and stored at -20°C. Before use, once again, the plates were washed with PBST.
Assay was carried out with 100 µl/well of assay solution containing 40 mM sodium acetate buffer (pH 5.0), 100 µM fondaparinux, 2.5 nM heparanase and serial dilutions of test compounds (tested in triplicate). Plates were sealed with adhesive tape and incubated, in the dark, for 3 h at 37°C, followed by development with 1.69 mM of the tetrazolium salt WST-1 solution in 0.1 M NaOH, for 1 h at 60°C. Then, the absorbance at 560 nm was measured through a microplate reader (Victor 3, Perkin Elmer).
Finally, the measurements were corrected by subtracting both the reagent background and the inner absorbance value of test compound.

[1] = test system: HT1080 (human fibrosarcoma); assay: SRB Cell Cytotoxicity Assay (cell proliferation, 72h); format: cell-based; details: read-out: Concentration (µM) of test compounds at which the cell growth is inhibited by 50 %. HT1080
Method: (§1) SRB Cell Cytotoxicity Assay is an assay based upon the quantitative staining of cellular proteins by sulforhodamine B (SRB). This assay can be used for high-throughput drug screening ([…], Nature Protocol. 2006, 1, 112). Sulforhodamine B is an anionic aminoxanthene dye that forms an electrostatic complex with the basic amino acid residues of proteins under moderately acid conditions, which provides a sensitive linear response. […] Inhibition of cell proliferation was then measured by the classical colorimetric SRB Cell Cytotoxicity assay. Absorbance was measured by spectrophotometer at a wavelength of 510 nm and cell proliferation was determined as percent with respect to control cells (cells treated with the vehicle alone). EC50 values were then determined by GraphPad Prism.

[2] = test system: U2OS (human osteosarcoma); assay: as above; format: cell-based; details: read-out: Concentration (µM) of test compounds at which the cell growth is inhibited by 50 %. U2OS
Method: as §1

[3] = test system: U87MG (human glioblastoma astrocytoma); assay: as above; format: cell-based; details: U-87 MG, read-out: Concentration (µM) of test compounds at which the cell growth is inhibited by 50 %. U87MG
Method: as §1

[4] = test system: HT1080 (human fibrosarcoma); assay: Matrigel cell invasion assay; format: cell-based; details: for inhibition at 2.5 µM: HT-1080, read-out: Invasion Assay Inhibition HT1080
Method: (§2) Heparanase inhibitors were then evaluated for their activity on the invasive potential of HT1080 (human fibrosarcoma), U87MG (human glioblastoma astrocytoma) and U2OS (human osteosarcoma) human cell lines, using the Matrigel cell invasion assay which allows to assess the cell invasion ability of malignant and normal cells.
(§3) Invasion assay was performed using BioCoat cell culture inserts (BioCoat 8.0µm PET Membrane 24 Well Permeable Supports, Corning). Filters were coated with 100 µl of 300 µg/ml Matrigel dissolved in coating buffer (0.01 M Tris pH 8.0, 0.7% NaCl) (Becton-Dickinson Sciences). DMEM (Dulbecco's Modified Eagle's Medium) containing 5% FBS was added to the lower chambers. Cells were pre-treated with heparanase inhibitors for 24 h, detached and added to the upper chambers in media containing the inhibitors. Cells were allowed to invade for 24 h at 37°C in a CO2 incubator and then unmigrated cells were removed from the upper chamber with a cotton swab. The invading cells were fixed, stained with 0.1% crystal violet for 10 min at room temperature, photographed and counted under inverted microscope.
(§4) Test compounds were analyzed at fixed concentration (2.5 µM) for several fields, in duplicates. Activity of test compounds was compared to the reference compound. Activity of most interesting compound was confirmed in a second cell invasion assay. Data were expressed as the percent invasion with respect to cell migration through uncoated insert membrane.
(§5) Table 3. […] In Invasion assay, data were expressed as the percent invasion (range) with respect to cell migration through uncoated insert membrane. In Adhesion assay, data were expressed as the percent of adhesion with respect to the control (100%).

[5] = test system: U2OS (human osteosarcoma); assay: Matrigel cell invasion assay; format: cell-based; details: for inhibition at 2.5 µM: Homo sapiens, read-out: Invasion Assay Inhibition U2OS
Method: as §2, §3, §4, §5

[6] = test system: U87MG (human glioblastoma astrocytoma); assay: Matrigel cell invasion assay; format: cell-based; details: for inhibition at 2.5 µM: Homo sapiens, U-87 MG, read-out: Invasion Assay Inhibition U87MG
Method: as §2, §3, §4, §5

[7] = test system: HT1080 (human fibrosarcoma); assay: Cell adhesion assay on matrigel coated wells; format: cell-based; details: percent of adhesion with respect to the control (100%)
Method: (§6) Cell surface, non-integrin molecules such as heparan sulfate proteoglycans (HSPGs) may be involved in the regulation of early adhesive stages of cell-ECM interactions. A cell adhesion assay has been employed to determine if the newly designed heparanase inhibitors were able to interfere with adhesion properties of cancer cells.
(§7) HT1080 (human fibrosarcoma) and U87MG (human glioblastoma astrocytoma) cells were treated for 18-20 h with test compounds in complete medium supplemented with 10% FCS. Then cells were collected, washed in complete medium, and added to matrigel coated wells in triplicate, at previously identified optimal seeding density, and incubated at 37 °C in complete medium for times ranging from 15 minutes to 4h, according to the cell line. After incubation, the wells were washed three times with serum-free medium and the remaining firmly attached cells were stained with crystal-violet 0.1%. Optical density was measured at 560 nm by Victor 3 (Perkin-Elmer) plate analyzer. Each experiment was repeated three times.
as §5

[8] = test system: U87MG (human glioblastoma astrocytoma); assay: Cell adhesion assay on matrigel coated wells; format: cell-based; details: percent of adhesion with respect to the control (100%)
Method: as §6, §7, §5

[9] = AGA*IA screening, read-out: anti-heparanase activity
[10] = Table 1, range activity classes, AGA*IA test on Fondaparinux, read-out: AGAIA assay IC50
[11] = Table 2, classes as in Table 1, read-out: AGA*IA assay

Row | Structure (SMILES) | IC50 (heparanase; [9]) [µM] | IC50 (heparanase; [10]) [µM] | IC50 (heparanase; [11]) [µM] | EC50 ([1]; HT-1080, 72 h) [µM] | EC50 ([2]; 72 h) [µM] | EC50 ([3]; 72 h) [µM] | inhibition at 2.5 µM [4] [%] | Invasion Assay Inhibition U2OS ([5]; 2.5 µM) | inhibition at 2.5 µM [6] [%] | Adhesion Assay (%) HT1080 ([7]; 2.5 µM) [%] | Adhesion Assay (%) U87MG ([8]; 2.5 µM) [%] | inhibition at 2.5 µM [5] [%] | EC50 ([1]; HT-1080, HT1080, 72h, SRB) [µM] | EC50 ([2]; 72h, SRB) [µM] | EC50 ([3]; U87MG, 72h, SRB) [µM] | inhibition at 10 µM ([4]; HT-1080, HT1080, 10 µM (reference)) [%] | Invasion Assay Inhibition U2OS ([5]; 10 µM (reference)) | Invasion Assay Inhibition U87MG ([6]; U87MG, 10 µM (reference)) | Adhesion Assay (%) HT1080 ([7]; 10 µM (reference)) [%] | Adhesion Assay (%) U87MG ([8]; 10 µM (reference)) [%]
1 | Cn1cc(NC(=O)c2cccc(NC(=O)Nc3cccc(C(=O)Nc4cc(C(=O)Nc5cccc(CC(=O)NCC(=O)O)c5)n(C)c4)c3)c2)cc1C(=O)Nc1cccc(CC(=O)NCC(=O)O)c1 [Compound 12b, 2,2'-((2,2'-(((4,4'-((3,3'-(Carbonylbis(azanediyl))bis(benzoyl))bis(azanediyl))bis(1-methyl-1H-pyrrole-4,2-diyl-2-carbonyl))bis(azanediyl))bis(3,1-phenylene))bis(acetyl))bis(azanediyl))diacetic acid] | < 0.5 | 0.05 to 0.49 | 0.05 to 0.49 | > 2.5 | > 2.5 | > 2.5 | < 50 | - | < 50 | 97.1 | 16.7 |  |  |  |  |  |  |  |  | 
2 | Cn1cc(NC(=O)c2cc(NC(=O)Nc3cc(C(=O)Nc4cc(C(=O)Nc5cccc(CC(=O)NCC(=O)O)c5)n(C)c4)cc(C(F)(F)F)c3)cc(C(F)(F)F)c2)cc1C(=O)Nc1cccc(CC(=O)NCC(=O)O)c1 [Compound 13c, Disodium 2,2'-{carbonylbis[imino[5-(trifluoromethyl)-3,1-phenylene]carbonylimino(1-methyl-1H-pyrrole-4,2-diyl)carbonylimino-3,1-phenylene(1-oxoethane-2,1-diyl)imino]}diethanoate salt] | < 0.5 | 0.05 to 0.49 | 0.05 to 0.49 | > 2.5 | > 2.5 | > 2.5 | < 50 |  | < 50 | 88.2 | 22.0 | 50 to 90 |  |  |  |  |  |  |  | 
3 | Cn1cc(NC(=O)Nc2cc(C(=O)Nc3cc(C(=O)Nc4cccc(CC(=O)N[C@@H](Cc5ccccc5)C(=O)O)c4)n(C)c3)n(C)c2)cc1C(=O)Nc1cc(C(=O)Nc2cccc(CC(=O)N[C@@H](Cc3ccccc3)C(=O)O)c2)n(C)c1 [Compound 17e, 2,2'-{carbonylbis[imino(1-methyl-1H-pyrrole-4,2-diyl)carbonylimino(1-methyl-1H-pyrrole-4,2-diyl)carbonylimino-3,1-phenylene(1-oxoethane-2,1-diyl)imino]}bis(3-phenylpropanoic acid)] |  | 0.5 to 0.99 | 0.5 to 0.99 | > 2.5 | > 2.5 | > 2.5 | < 50 | - | < 50 | 93.2 | 51.6 |  |  |  |  |  |  |  |  | 
4 | Cn1cc(NC(=O)Nc2cc(C(=O)Nc3cc(C(=O)Nc4cccc(CC(=O)NCC(=O)O)c4)n(C)c3)n(C)c2)cc1C(=O)Nc1cc(C(=O)Nc2cccc(CC(=O)NCC(=O)O)c2)n(C)c1 [Compound 18, Disodium 2,2'-{carbonylbis[imino(1-methyl-1H-pyrrole-4,2-diyl)carbonylimino(1-methyl-1H-pyrrole-4,2-diyl)carbonylimino-3,1-phenylene(1-oxoethane-2,1-diyl)imino]}diethanoate salt] |  | 0.5 to 0.99 | 0.5 to 0.99 | > 2.5 | > 2.5 | > 2.5 | 50 to 90 |  | < 50 | 86.4 | 62.9 | < 50 |  |  |  |  |  |  |  | 
5 | Cc1ccc(C(=O)Nc2ccc(S(=O)(=O)O)c3cc(S(=O)(=O)O)cc(S(=O)(=O)O)c23)cc1NC(=O)c1cccc(NC(=O)Nc2cccc(C(=O)Nc3cc(C(=O)Nc4ccc(S(=O)(=O)O)c5cc(S(=O)(=O)O)cc(S(=O)(=O)O)c45)ccc3C)c2)c1 [Suramin, reference compound] |  |  |  |  |  |  |  |  |  |  |  |  | > 10 | > 10 | > 10 | < 50 | - | - | 100 | 72.98
